One data set relates to Calu-6. The experiment in a line: Cell proliferation-inhibiting activity (ATP in viable cells, CellTiter-Glo), Calu-6. It counts as cell-based, human. To be noted: read-out: Calu-6 IC50. On the technique in general: In ATP-based viability assays light output follows the ATP content of the culture.
In another data set the target is T1, BRAF (Homo sapiens, UniProt P15056).
T1 construct: purchased Eurofins Genomics KK; (BRAF); Thermo Fisher Scientific Inc. (MEK1)
The experiment in a line: BRAF-inhibiting activity, time-resolved fluorescence-fluorescence resonance energy transfer assay. It counts as biochemical. The method, then:
The BRAF-inhibiting activity of the compounds listed in Table 3 below was evaluated by the time-resolved fluorescence-fluorescence resonance energy transfer assay as described below.

A further data set deals with NCI-H2122. The experiment in a line: Cell proliferation-inhibiting activity (ATP in viable cells, CellTiter-Glo), NCI-H2122. It counts as cell-based, human. To be noted: read-out: NCI-H2122 IC50.
Data set [1] in a line: Human liver microsome stability. Format: in vitro ADME. As to conditions: human liver microsomes, pH 7.4.
The subject of the next data set is A549. The experiment in a line: Cell proliferation-inhibiting activity (ATP in viable cells, CellTiter-Glo), A549. To be noted: read-out: A549 IC50. It counts as cell-based, human.
Another data set has as its target T2, MEK1 (Homo sapiens, UniProt Q02750).
T2 construct: purchased Thermo Fisher Scientific Inc. (MEK1, CRAF); Carna Biosciences, Inc. (ERK2)
The experiment in a line: MEK1-inhibiting activity, fluorescent polarization method (CRAF/MEK1/ERK2 cascade, IMAP). Format: biochemical. As to conditions: Table 3; read-out: MEK1 IC50. As for the experimental part: The MEK1-inhibiting activity of the compounds listed in Table 3 below were evaluated by the fluorescent polarization method as described below.

Where [2] appears, read: Calu-6, 96 h, human lung cancer cells, 4 days.
Where [3] appears, read: NCI-H2122, 96 h, human lung cancer cells, 4 days.
[4] abbreviates: A549, 96 h, human lung cancer cells, 4 days.
[5] abbreviates: human lung cancer cells, 4 days.

Where two headings read alike, the source gives them in different places. Where only a bound is given, the exact number is not on record here.

T1 sequence (P15056 417-766 limits assumed): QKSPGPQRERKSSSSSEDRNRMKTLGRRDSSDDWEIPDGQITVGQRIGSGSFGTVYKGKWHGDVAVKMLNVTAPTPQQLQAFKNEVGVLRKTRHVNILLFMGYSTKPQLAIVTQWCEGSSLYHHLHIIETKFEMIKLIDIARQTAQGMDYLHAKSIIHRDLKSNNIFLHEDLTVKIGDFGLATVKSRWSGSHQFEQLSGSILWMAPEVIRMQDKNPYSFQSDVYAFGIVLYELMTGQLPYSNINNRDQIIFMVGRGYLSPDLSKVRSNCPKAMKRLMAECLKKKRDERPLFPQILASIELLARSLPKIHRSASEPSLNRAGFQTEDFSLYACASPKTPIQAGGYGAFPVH
T2 sequence (Q02750 whole entry): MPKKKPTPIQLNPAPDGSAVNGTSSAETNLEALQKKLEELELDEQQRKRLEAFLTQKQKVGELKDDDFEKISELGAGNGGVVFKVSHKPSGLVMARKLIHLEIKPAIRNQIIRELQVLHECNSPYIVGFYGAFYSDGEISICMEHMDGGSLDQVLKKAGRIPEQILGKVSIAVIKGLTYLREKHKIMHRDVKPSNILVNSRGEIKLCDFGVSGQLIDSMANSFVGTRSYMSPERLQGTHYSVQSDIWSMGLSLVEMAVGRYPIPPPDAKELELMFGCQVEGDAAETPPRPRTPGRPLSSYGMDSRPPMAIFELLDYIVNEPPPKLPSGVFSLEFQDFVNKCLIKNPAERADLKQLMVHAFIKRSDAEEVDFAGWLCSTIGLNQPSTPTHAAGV

What is called IC50 is the point on the concentration scale where inhibition reaches its midpoint. What is called microsomal CLint is the capacity of the preparation to metabolise the compound, expressed as a volume cleared per time. A lower microsomal CLint goes with slow turnover. For the compound `CNS(=O)(=O)Nc1nccc(Cc2cc(C(N)=O)c(Nc3ccc(SC)cc3F)c(F)c2F)c1F` [Compound A-18, 3,4-difluoro-5-[[3-fluoro-2-(methylsulfamoylamino)pyridin-4-yl]methyl]-2-(2-fluoro-4-methylsulfanylanilino)benzamide], the concentration for half-maximal inhibition (IC50) was found to be 7 nM in the data set on Calu-6 (Homo sapiens, Calu-6, 96 h); 4 nM at BRAF (Table 3; read-out: BRAF IC50); 2 nM in the data set on NCI-H2122 (Homo sapiens, NCI-H2122, 96 h); 5 nM with A549 (Homo sapiens, A549, 96 h); 8 nM at MEK1. For the same compound, in data set [1], the microsomal CLint at 0.99 µM turned out to be 53 µL/min/mg.

In the case of `O=C(NC1CC1)c1cc(Cc2ccnc(NS(=O)(=O)NCCF)c2F)c(F)c(F)c1Nc1ccc(I)cc1F` [Compound A-6, N-cyclopropyl-3,4-difluoro-5-[[3-fluoro-2-(2-fluoroethylsulfamoylamino)pyridin-4-yl]methyl]-2-(2-fluoro-4-iodoanilino)benzamide], the IC50 was 19 nM with Calu-6 (setting [2]); 10 nM at BRAF (read-out: BRAF IC50; Table 3); 3 nM in the data set on NCI-H2122 (setting [3]); 17 nM in the data set with A549 (setting [4]); 12 nM at MEK1. The compound also registered a microsomal CLint at 0.99 µM in data set [1] of 20 µL/min/mg.

Turning to `COCC(C)(C)NS(=O)(=O)Nc1nccc(Cc2cc(C(N)=O)c(Nc3ccc(I)cc3F)c(F)c2F)c1F` [Compound A-24, 3,4-Difluoro-2-(2-fluoro-4-iodoanilino)-5-[[3-fluoro-2-[(1-methoxy-2-methylpropan-2-yl)sulfamoylamino]pyridin-4-yl]methyl]benzamide], the IC50 with Calu-6 (setting [2]) came to 51 nM; on BRAF (read-out: BRAF IC50; Table 3) it was 3 nM; in the data set with NCI-H2122 (setting [3]), 4 nM; in the data set on A549 (setting [4]), 11 nM; at MEK1, 129 nM. Also, the intrinsic clearance (microsomal CLint) at 0.99 µM in data set [1] was found to be 48 µL/min/mg.

Consider `CNS(=O)(=O)Nc1nccc(Cc2cc(C(N)=O)c(Nc3ccc(SC(F)F)cc3F)c(F)c2F)c1F` [Compound H-1, 2-[4-(difluoromethylsulfanyl)-2-fluoroanilino]-3,4-difluoro-5-[[3-fluoro-2-(methylsulfamoylamino)pyridin-4-yl]methyl]benzamide], for which the half-inhibitory concentration (IC50) in the data set on Calu-6 (Homo sapiens, Calu-6, 96 h) stood at 21 nM; at BRAF (Table 3; read-out: BRAF IC50), 2 nM; in the data set on NCI-H2122 (Homo sapiens, NCI-H2122, 96 h), 5 nM; with A549 (Homo sapiens, A549, 96 h), 9 nM; at MEK1 it was 7 nM. Further, the microsomal CLint at 0.99 µM in data set [1] was found to be 39 µL/min/mg.

Consider `NC(=O)c1cc(Cc2cccc(NS(=O)(=O)CC3CC3)c2F)c(F)c(F)c1Nc1ccc(I)cc1F` [Compound E-14, 5-[[3-(Cyclopropylmethylsulfonylamino)-2-fluorophenyl]methyl]-3,4-di fluoro-2-(2-fluoro-4-iodoanilino)benzamide], for which the IC50 with Calu-6 (setting [2]) came to 71 nM; on BRAF (read-out: BRAF IC50; Table 3) it was 17 nM; with NCI-H2122 (setting [3]) it was 7 nM; in the data set on A549 (setting [4]), 13 nM; on MEK1, 343 nM. The microsomal CLint at 0.99 µM in data set [1] amounted to 22 µL/min/mg.

For the compound `CONC(=O)c1cc(Cc2cccc(NS(=O)(=O)C3(C)CC3)c2F)c(=O)n(C)c1Nc1ccc(I)cc1F` [Compound K-7, 2-(2-Fluoro-4-iodoanilino)-5-[[2-fluoro-3-[(1-methylcyclopropyl)sulfonylamino]phenyl]methyl]-N-methoxy-1-methyl-6-oxopyridine-3-carboxamide], the 50% inhibitory concentration (IC50) amounted to 27 nM in the data set on Calu-6 (setting [2]); 14 nM at BRAF (read-out: BRAF IC50; Table 3); 7 nM in the data set with NCI-H2122 (setting [3]); 9 nM in the data set on A549 (setting [4]); 31 nM at MEK1. Besides, the microsomal CLint at 0.99 µM in data set [1] amounted to 357 µL/min/mg.

Turning to `CS(=O)(=O)Nc1cccc(Cc2cc(C(N)=O)c(Nc3ccc(I)cc3F)c(F)c2F)c1F` [Compound E-13, 3,4-difluoro-2-(2-fluoro-4-iodoanilino)-5-[[2-fluoro-3-(methanesulfonamide)phenyl]methyl]benzamide], the IC50 with Calu-6 (setting [5]) was 84 nM; at BRAF (read-out: BRAF IC50; Table 3), 1 nM; in the data set on NCI-H2122 (setting [5]) it was 6 nM; in the data set with A549 (setting [5]) it was 30 nM.

Regarding `NC(=O)c1c(Nc2ccc(I)cc2F)cncc1Oc1cccc(NS(=O)(=O)C2CC2)c1` [Ref-4, reference compound], the concentration for half-maximal inhibition (IC50) in the data set with Calu-6 (setting [2]) worked out at 18 nM; with NCI-H2122 (setting [3]), 2 nM; in the data set with A549 (setting [4]) it was 2 nM; at MEK1, 11 nM. The compound further returned a microsomal CLint at 0.99 µM in data set [1] of 32 µL/min/mg.

With `CCS(=O)(=O)Nc1nccc(Cc2cc(C(=O)NC3CC3)c(Nc3ccc(I)cc3F)c(F)c2F)c1F` [Compound A-39], the IC50 in the data set with Calu-6 (setting [2]) was found to be 79 nM; at BRAF (read-out: BRAF IC50; Table 3), 14 nM; in the data set on NCI-H2122 (setting [3]), 7 nM; in the data set with A549 (setting [4]), 30 nM; on MEK1 it was 41 nM.

Consider `CNS(=O)(=O)Nc1cccc(Cc2cc(C(N)=O)c(Nc3ccc(C4CC4)cc3F)c(F)c2F)c1F` [Compound D-14, 2-(4-Cyclopropyl-2-fluoroanilino)-3,4-difluoro-5-[[2-fluoro-3-(methylsulfamoylamino)phenyl]methyl]benzamide], for which the half-inhibitory concentration (IC50) with Calu-6 (Homo sapiens, Calu-6, 96 h) was 117 nM; on BRAF (Table 3; read-out: BRAF IC50) it was 7 nM; with NCI-H2122 (Homo sapiens, NCI-H2122, 96 h) it was 10 nM; at MEK1 it was 1600 nM. Further, the intrinsic metabolic clearance (microsomal CLint) at 0.99 µM in data set [1] was determined as 15 µL/min/mg.

`COCC1(S(=O)(=O)Nc2cccc(Cc3cc(C(=O)NOC)c(Nc4ccc(I)cc4F)c(F)c3F)c2F)CC1` [Compound E-3]: the half-maximal inhibitory concentration (IC50) was 7 nM in the data set on Calu-6 (setting [5]); 5 nM at BRAF (Table 3; read-out: BRAF IC50); 2 nM in the data set with NCI-H2122 (setting [5]); 4 nM with A549 (setting [5]); 33 nM at MEK1.

`CONC(=O)c1cc(Cc2cccc(NS(C)(=O)=O)c2F)c(F)c(F)c1Nc1ccc(I)cc1F` [Compound E-26, 3,4-Difluoro-2-(2-fluoro-4-iodoanilino)-5-[[2-fluoro-3-(methanesulfonamide)phenyl]methyl]-N-methoxybenzamide]: the 50% inhibitory concentration (IC50) in the data set with Calu-6 (setting [2]) was 5 nM; at BRAF (read-out: BRAF IC50; Table 3), 6 nM; in the data set with NCI-H2122 (setting [3]) it was 0.6 nM; at MEK1, 13 nM. This compound had a microsomal CLint at 0.99 µM in data set [1] of 13 µL/min/mg.

In the case of `CONC(=O)c1cc(Cc2cccc(NS(=O)(=O)NC3(C)CCC3)c2F)c(F)c(F)c1Nc1ccc(I)cc1F` [Compound D-13, 3,4-Difluoro-2-(2-fluoro-4-iodoanilino)-5-[[2-fluoro-3-[(1-methylcyclobutyl)sulfamoylamino]phenyl]methyl]-N-methoxybenzamide], the IC50 amounted to 6 nM in the data set on Calu-6 (setting [2]), 18 nM on BRAF (read-out: BRAF IC50; Table 3), 1 nM in the data set on NCI-H2122 (setting [3]) and 29 nM on MEK1. This compound returned an intrinsic clearance (microsomal CLint) at 0.99 µM in data set [1] of 88 µL/min/mg.

With `COCCNS(=O)(=O)Nc1nccc(Cc2cc(C(=O)NC3CC3)c(Nc3ccc(I)cc3F)n(C)c2=O)c1F` [Compound J-7, N-Cyclopropyl-2-(2-fluoro-4-iodoanilino)-5-[[3-fluoro-2-(2-methoxyethylsulfamoylamino)pyridin-4-yl]methyl]-1-methyl-6-oxopyridine-3-car boxamide], the IC50 was 380 nM in the data set with Calu-6 (setting [2]), 12 nM at BRAF (read-out: BRAF IC50; Table 3), 29 nM in the data set on NCI-H2122 (setting [3]) and 627 nM at MEK1. The compound further came in with a microsomal CLint at 0.99 µM in data set [1] of 30 µL/min/mg.

For the compound `CC1(NS(=O)(=O)Nc2cccc(Cc3cc(C(N)=O)c(Nc4ccc(I)cc4F)c(F)c3F)c2F)CCC1` [Compound D-9, 3,4-Difluoro-2-(2-fluoro-4-iodoanilino)-5-[[2-fluoro-3-[(1-methylcyclobutyl)sulfamoylamino]phenyl]methyl]benzamide], the half-maximal inhibitory concentration (IC50) came to 28 nM with Calu-6 (setting [2]), 24 nM at BRAF (read-out: BRAF IC50; Table 3), 3 nM with NCI-H2122 (setting [3]) and 252 nM on MEK1. Also, the microsomal CLint at 0.99 µM in data set [1] was determined as 53 µL/min/mg.

Regarding `CCS(=O)(=O)Nc1cccc(Cc2cc(C(=O)NOC(C)(C)C)c(Nc3ccc(I)cc3F)n(C)c2=O)c1F` [Compound K-9], the 50% inhibitory concentration (IC50) in the data set on Calu-6 (setting [5]) stood at 34 nM; on BRAF (Table 3; read-out: BRAF IC50) it was 8 nM; in the data set with NCI-H2122 (setting [5]) it was 8 nM; in the data set on A549 (setting [5]), 17 nM; on MEK1, 23 nM.

Take `CNS(=O)(=O)Nc1cccc(Cc2cc(C(=O)NOC)c(Nc3ccc(I)cc3F)c(F)c2F)c1F` [Compound D-11, 3,4-Difluoro-2-(2-fluoro-4-iodoanilino)-5-[[2-fluoro-3-(methylsulfamoylamino)phenyl]methyl]-N-methoxybenzamide]: the concentration for half-maximal inhibition (IC50) with Calu-6 (setting [2]) stood at 2 nM; on BRAF (read-out: BRAF IC50; Table 3) it was 3 nM; with NCI-H2122 (setting [3]), 0.3 nM; at MEK1, 6 nM. In addition, the intrinsic clearance (microsomal CLint) at 0.99 µM in data set [1] turned out to be 24 µL/min/mg.

Regarding `CCS(=O)(=O)Nc1nccc(Cc2cc(C(=O)NOC)c(Nc3ccc(I)cc3F)c(F)c2F)c1F` [Compound B-16, 5-[[2-(ethylsulfonylamino)-3-fluoropyridin-4-yl]methyl]-3,4-difl uoro-2-(2-fluoro-4-iodoanilino)-N-methoxybenzamide], the IC50 with Calu-6 (setting [2]) is 9 nM; at BRAF (read-out: BRAF IC50; Table 3), 12 nM; in the data set on NCI-H2122 (setting [3]), 1 nM; at MEK1, 4 nM. Also, in data set [1], the microsomal CLint at 0.99 µM came to 10 µL/min/mg.

Regarding `CNS(=O)(=O)Nc1nccc(Cc2c(C)c3ccc(Oc4ncccn4)cc3oc2=O)c1F` [Ref-5, 3-[[3-Fluoro-2-(methylsulfamoylamino)pyridin-4-yl]methyl]-4-methyl-7-pyrimidin-2-yloxychromen-2-one, reference compound], the half-maximal inhibitory concentration (IC50) with Calu-6 (setting [2]) was 418 nM; at BRAF (read-out: BRAF IC50; Table 3), 11 nM; with NCI-H2122 (setting [3]), 27 nM; with A549 (setting [4]), 113 nM. Also, the microsomal CLint at 0.99 µM in data set [1] is below 1 µL/min/mg.

The values are drawn from patent publication EP4725941A1, “ARYLAMIDE DERIVATIVE HAVING ANTITUMOR ACTIVITY” (priority 2020, dated 2021).
